# Test results: US20060014728A1, “Hormone replacement therapy” (priority 1996, published 2006)
# Values joined by “and” are separate entries in the source; they are usually repeats but may differ in a detail not shown here. Equal entries are not always repeated.
# How the values were obtained:
# endometrium = test: Antiproliferative action of antiprogestins on the endometrium in estrogen-replaced, ovariectomized cynomolgus monkeys (Example 2); type: in vivo; settings: biopsy day 30; 1 or 3 mg/kg im daily days 1-30; estradiol capsule sc
# endometrial tissues = test: Histologic evaluation of primate endometrial tissues on days 53 and 70 (Example 1); type: in vivo, cynomolgus monkeys; settings: for Endometrial Score: score 0-atrophic to 5-secretory; for Thickness (mm): mean ± SD; for thicknesses of endometrial tissues: day 70, Groups III-VI (2.0 and 20.0 mg/kg together)
# Excerpt: Additional data were collected by measurements of estradiol, progesterone and cortisol, as well as each antiprogestin in serum drawn on alternate days (1 to 81). Also, endometrial response was examined histologically in biopsy specimens collected on days 53 and 70, both to measure thickness of endometrial tissue (i.e., anti-proliferative response) and to assess the endometrial tissue qualitatively (atrophic, proliferative, or secretory, etc.).
# (§1) The monkeys were randomly distributed into six treatment group preparations (n=5 each). Group I (control) was treated with the vehicle only. One empty silastic implant was placed sc surgically from study day 1 to 81; this controlled for estradiol treatment. Another empty silastic implant was inserted sc from days 28 to 35 and from days 67 to 74 and controlled for progesterone treatment. One ml of the antiprogestin vehicle was administered im on alternate days (39 to 67). Group II received continuous estradiol progesterone at two intervals but no antiprogestins. This experimental design allowed two menstrual challenges (A and B). As described below (Groups III-VI), menstrual challenge A was without antiprogestin exposure; whereas B was with antiprogestin treatment. Group III monkeys received the sequential estradiol and progesterone regimens as in Group II but also RU 486 at 2.0 mg/kg on alternate days for four weeks (days 39 to 67). For Group IV, the same treatment occurred, except that the RU 486 dose was elevated by ten-fold (20.0 mg/kg). Similarly, primates in Groups V and VI were injected with onapristone at 2.0 and 20.0 mg/kg, respectively.
# (§2) In all treatment groups, observations for menstrual bleeding were made daily by visual inspection of the vaginal labia. Femoral blood collections (4.0 ml) were taken under ketamine-induced anesthesia (10 mg/kg) on alternate days and endometrial biopsies (by hysterotomy) were obtained on days 53 and 70. Endometrial biopsies were placed in formalin […] and processed for histologic evaluation by a clinical pathologist. Thickness of the endometrial tissues was measured with an ocular micrometer to determine the depth of the endometrium at its point of maximal thickness from the myometrial unction to the epithelial layer at the lumenal surface. Endometrial status was evaluated qualitatively and classified according to the following score: atrophic:O; early proliferative: 1; late proliferative:2; interval:3; early secretory:4; and late secretory:5.
# [1] = test system: ovariectomized cynomolgus monkeys; test: Withdrawal menses after sequential estradiol and progesterone therapy without versus with antiprogestin treatment (menstrual challenges A and B); type: in vivo
# Excerpt: 30 ovariecomized cynomolgus monkeys were studied intensively over 12 weeks. Primates in Group I (N=5 each) received only the vehicles used for hormone delivery in Groups II-VI. Monkeys in Group II received estradiol at physiologic levels throughout (days 1 to 81) via a sc silastic implant, as well as two separate courses of progesterone at physiologic levels via a sc silastic implant (days 28 to 35 and 67 to 74). Groups III-VI received the same sequential regimen of estradiol and progesterone as Group II, but in addition were given an antiprogestin im on alternate days 39 to 67: Group III, mifepristone (RU 486) 2.0 mg/kg; Group IV, mifepristone 20.0 mg/kg; Group V, onapristone (ZK 299) 2.0 mg/kg; and Group VI, onapristone 20.0 mg/kg. The two menstrual challenge tests (A and B) were defined as the six days immediately after withdrawal of progesterone treatment (A on days 36 to 41 and B on days 75 to 80).
# The protocol thus provided two periods of estrogen-only HRT treatment, one without antiprogestin followed by another with antiprogestin. Each of these two periods was followed by short-term progesterone treatment which provided a measurement of the effects on bleeding of the antiprogestin during the estrogen HRT treatment.
# as §1, §2
# [2] = Day 53, antiprogestin 2.0 mg/kg
# [3] = Day 53, antiprogestin 20.0 mg/kg
# [4] = Day 53, estradiol + progesterone + antiprogestin 2.0 mg/kg im alternate days 39-67
# [5] = Day 53, estradiol + progesterone + antiprogestin 20.0 mg/kg im alternate days 39-67
# [6] = Day 70, antiprogestin 2.0 mg/kg
# [7] = Day 70, antiprogestin 20.0 mg/kg
# [8] = Day 70, estradiol + progesterone + antiprogestin 2.0 mg/kg im alternate days 39-67
# [9] = Day 70, estradiol + progesterone + antiprogestin 20.0 mg/kg im alternate days 39-67
# [10] = 20.0 mg/kg im on alternate days 39-67, with estradiol + progesterone
# [11] = Menstrual Challenge A, withdrawal interval days 36-41, antiprogestins: none (baseline before antiprogestin), groups later given 2 mg/kg
# [12] = Menstrual Challenge A, withdrawal interval days 36-41, antiprogestins: none (baseline before antiprogestin), groups later given 20 mg/kg
# [13] = Menstrual Challenge B, withdrawal interval days 75-80, estradiol + progesterone + antiprogestin 2 mg/kg im on alternate days 39-67
# [14] = Menstrual Challenge B, withdrawal interval days 75-80, estradiol + progesterone + antiprogestin 20 mg/kg im on alternate days 39-67
Structure (SMILES),classification of endometrial specimens (developmental stage) (endometrium),Endometrial Score (endometrial tissues; [2]),Endometrial Score (endometrial tissues; [3]),Thickness (mm) (endometrial tissues; [4]),Thickness (mm) (endometrial tissues; [5]),Endometrial Score (endometrial tissues; [6]),Endometrial Score (endometrial tissues; [7]),Thickness (mm) (endometrial tissues; [8]),Thickness (mm) (endometrial tissues; [9]),thicknesses of endometrial tissues (endometrial tissues),"bleeding outcome during menstrual challenge B ([1]; 2.0 mg/kg im on alternate days 39-67, with estradiol + progesterone)","bleeding outcome during menstrual challenge B [1, 10]","Incidence of Bleeding, Days [1, 11]","Incidence of Bleeding, Days [1, 12]","Incidence of Bleeding, Days [1, 13]","Incidence of Bleeding, Days [1, 14]","histological evaluation of endometrium (endometrial tissues; Group V, 2.0 mg/kg)","Incidence of Bleeding, Days ([1]; Menstrual Challenge B, withdrawal interval days 75-80, estradiol + progesterone + antiprogestin 2 mg/kg im on alternate days 39-67, listed as ONA)"
C[C@]12C[C@@H]3c4ccc(-c5ccc(C#N)cc5)cc4C[C@]45CCC(=O)C=C4CC[C@@H]([C@H]35)[C@@H]1CC[C@@]2(O)/C=C/CO [ZK136798],interval,,,,,,,,,,,,,,,,,
"CC#C[C@]1(O)CC[C@H]2[C@@H]3CCC4=CC(=O)CCC4=C3[C@@H](c3ccc(N(C)C)cc3)C[C@@]21C [mifepristone, 11β-(4-dimethylaminophenyl)-17β-hydroxy-1-propinyl-4,9estradien-3-one]",proliferative,3.6,3.8,2.5 ± 0.2,2.2 ± 0.2,2.4,2.8,1.8 ± 0.2 mm,1.3 ± 0.1,approximately 1.5 mm,complete amenorrhea,complete amenorrhea,13/30,12/30,0/30,0/30,,
"CN(C)c1ccc([C@H]2C[C@]3(C)[C@@H](CC[C@]3(O)CCCO)[C@@H]3CCC4=CC(=O)CCC4=C32)cc1 [onapristone, 1β-(4-dimethylaminophenyl)-17-hydroxy-17β-(3-hydroxypropyl)-13-methyl-4,9-gonadien-3-one]",interval,3.8,3.6,2.6 ± 0.2,2.2 ± 0.1,4.0,3.0,1.6 mm and 1.6 ± 0.1 mm,1.7 ± 0.1,approximately 1.5 mm,,complete amenorrhea,9/30,9/30,three,0/30,well-developed secretory glands,3/30
